The nature of this data set: Evaluation of appearance (Test Example 1). Type of data set: physicochemical. Conditions: allowed to stand, about 1 hour after production; transparent / separated / cloudy. On the procedure: After producing the pharmaceutical compositions and the self-emulsifying compositions of Reference Examples by the production methods as described above, the compositions were allowed to stand, and after about 1 hour, their appearance was evaluated. The composition was evaluated “transparent” when the composition was homogeneous due to the good compatibility. The composition was evaluated “separated” when the separation was observed and “cloudy” when opacity was observed.

`CC(C)c1c(C(=O)Nc2ccccc2)c(-c2ccccc2)c(-c2ccc(F)cc2)n1CC[C@@H](O)C[C@@H](O)CC(=O)[O-].CC(C)c1c(C(=O)Nc2ccccc2)c(-c2ccccc2)c(-c2ccc(F)cc2)n1CC[C@@H](O)C[C@@H](O)CC(=O)[O-].[Ca+2]` [atorvastatin calcium]: the Appearance result is “good appearance was not realized”.

These data come from US20180015038A1, “OMEGA-3 FATTY ACID SELF-EMULSIFYING COMPOSITION” (MOCHIDA PHARMACEUTICAL CO., LTD., priority 2015, published 2018).
